Measurements taken from PubChem BioAssay AID256 (DTP/NCI, 2004).
Values joined by “and” are separate entries in the source; they are usually repeats but may differ in a detail not shown here. Equal values may be shown once. Toxic doses and inconclusive results are not listed. Residues, ends and D or L forms follow the SMILES beside them. *: point of attachment. Cbz = O=C(OCc1ccccc1)*; OBn = c1ccc(CO*)cc1

System: CD2F1 mice, L1210 leukemia ip, survival T/C
Experiment: NCI In Vivo Anticancer Drug Screen. Data for tumor model L1210 Leukemia (intraperitoneal) in CD2F1 (CDF1) mice
Conditions: higher = longer survival
Method in brief: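 Vehicle-treated tumor-bearing mice served as controls (C) for compound-treated mice (T). Reported figure is T divided by C.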

[1] = endpoint: mean survival time, dose: 50.0 mg/kg/injection, schedule: Q04DX003 (ip), vehicle: saline with Tween-80
[2] = endpoint: mean survival time, dose: 100.0 mg/kg/injection, schedule: Q04DX002 (ip), vehicle: saline with Tween-80
[3] = endpoint: mean survival time, dose: 200.0 mg/kg/injection, schedule: Q04DX002 (ip), vehicle: saline with Tween-80
[4] = endpoint: mean survival time, dose: 400.0 mg/kg/injection, schedule: Q04DX002 (ip), vehicle: saline with Tween-80
[5] = endpoint: mean survival time, dose: 100.0 mg/kg/injection, schedule: Q01DX001 (ip), vehicle: saline with Tween-80
[6] = endpoint: mean survival time, dose: 200.0 mg/kg/injection, schedule: Q01DX001 (ip), vehicle: saline with Tween-80
[7] = endpoint: mean survival time, dose: 100.0 mg/kg/injection, schedule: Q04DX002 (ip), vehicle: saline
[8] = endpoint: mean survival time, dose: 400.0 mg/kg/injection, schedule: Q01DX001 (ip), vehicle: saline with Tween-80
[9] = endpoint: mean survival time, dose: 100.0 mg/kg/injection, schedule: Q04DX003 (ip), vehicle: saline with Tween-80
[10] = endpoint: mean survival time, dose: 200.0 mg/kg/injection, schedule: Q04DX003 (ip), vehicle: saline with Tween-80
[11] = endpoint: mean survival time, dose: 400.0 mg/kg/injection, schedule: Q04DX003 (ip), vehicle: saline with Tween-80
[12] = endpoint: mean survival time, dose: 100.0 mg/kg/injection, schedule: Q01DX009 (ip), vehicle: saline with Tween-80
[13] = endpoint: mean survival time, dose: 200.0 mg/kg/injection, schedule: Q01DX009 (ip), vehicle: saline with Tween-80
[14] = endpoint: mean survival time, dose: 400.0 mg/kg/injection, schedule: Q01DX009 (ip), vehicle: saline with Tween-80

SMILES: CCC(CC)(C[NH-])C[NH-].[Cl][Pt+2][Cl]
- T/C (endpoint: mean survival time, dose: 1.56 mg/kg/injection, schedule: Q04DX003 (ip), vehicle: saline): 105 % of control
- T/C (endpoint: mean survival time, dose: 3.12 mg/kg/injection, schedule: Q04DX003 (ip), vehicle: saline): 118 % of control
- T/C (endpoint: mean survival time, dose: 6.25 mg/kg/injection, schedule: Q04DX003 (ip), vehicle: saline): 119 % of control
- T/C (endpoint: mean survival time, dose: 12.5 mg/kg/injection, schedule: Q04DX003 (ip), vehicle: saline with Tween-80): 319 % of control
- T/C (endpoint: mean survival time, dose: 12.5 mg/kg/injection, schedule: Q04DX003 (ip), vehicle: saline): 155 % of control
- T/C (endpoint: mean survival time, dose: 25.0 mg/kg/injection, schedule: Q04DX003 (ip), vehicle: saline with Tween-80): 307 % of control
- T/C (endpoint: mean survival time, dose: 25.0 mg/kg/injection, schedule: Q04DX003 (ip), vehicle: saline): 227 % of control
- T/C [1]: 86 % of control
- T/C (endpoint: median survival time, dose: 1.5 mg/kg/injection, schedule: Q01DX009 (ip), vehicle: carboxymethylcellulose (CMC)): 234 % of control
- T/C (endpoint: median survival time, dose: 3.0 mg/kg/injection, schedule: Q01DX009 (ip), vehicle: carboxymethylcellulose (CMC)): 203 % of control
- T/C (endpoint: median survival time, dose: 6.0 mg/kg/injection, schedule: Q01DX001 (ip), vehicle: carboxymethylcellulose (CMC)): 203 % of control
- T/C (endpoint: median survival time, dose: 6.0 mg/kg/injection, schedule: Q01DX009 (ip), vehicle: carboxymethylcellulose (CMC)): 109 % of control
- T/C (endpoint: median survival time, dose: 9.0 mg/kg/injection, schedule: Q01DX001 (ip), vehicle: carboxymethylcellulose (CMC)): 312 % of control
- T/C (endpoint: median survival time, dose: 9.0 mg/kg/injection, schedule: Q01DX009 (ip), vehicle: carboxymethylcellulose (CMC)): 98 % of control
- T/C (endpoint: median survival time, dose: 12.0 mg/kg/injection, schedule: Q01DX001 (ip), vehicle: carboxymethylcellulose (CMC)): 312 % of control
- T/C (endpoint: median survival time, dose: 15.0 mg/kg/injection, schedule: Q01DX001 (ip), vehicle: carboxymethylcellulose (CMC)): 106 % of control

SMILES: CCOc1ccc(OCC)c(NC(=O)Nc2ccccc2OC)c1
- T/C [2]: 96 % of control
- T/C [3]: 96 % of control
- T/C [4]: 96 % of control

SMILES: O=C1CN2CCC1CC2
- T/C (endpoint: mean survival time, dose: 100.0 mg/kg/injection, schedule: Q04DX003 (ip), vehicle: saline): 102 % of control
- T/C (endpoint: mean survival time, dose: 200.0 mg/kg/injection, schedule: Q04DX003 (ip), vehicle: saline): 107 % of control

SMILES: NC(Cc1ccc(N(CCCl)Cc2ccccc2)cc1)C(=O)O (centres undefined)
- T/C (endpoint: mean survival time, dose: 3.12 mg/kg/injection, schedule: Q01DX009 (ip), vehicle: distilled water + Tween-80): 103 % of control and 107 % of control
- T/C (endpoint: mean survival time, dose: 3.13 mg/kg/injection, schedule: Q01DX009 (ip), vehicle: distilled water + Tween-80): 106 % of control

SMILES: CCCCC(C)C1(CCC)NC(C)(C)CC(C)O1 (centres undefined)
- T/C [5]: 97 % of control
- T/C [6]: 101 % of control

SMILES: CC(=O)c1ccc(Cc2ccc(C(C)=O)cc2)cc1
- T/C (endpoint: mean survival time, dose: 100.0 mg/kg/injection, schedule: Q04DX003 (ip), vehicle: Klucel (hydroxypropylcellulose) (HPC)): 103 % of control
- T/C (endpoint: mean survival time, dose: 200.0 mg/kg/injection, schedule: Q04DX003 (ip), vehicle: Klucel (hydroxypropylcellulose) (HPC)): 98 % of control
- T/C (endpoint: mean survival time, dose: 400.0 mg/kg/injection, schedule: Q04DX003 (ip), vehicle: Klucel (hydroxypropylcellulose) (HPC)): 97 % of control

SMILES: C=CCCCCCCCCC(=O)NCCCN1CCOCC1
- T/C [5]: 91 % of control
- T/C [6]: 86 % of control

SMILES: CCCOC(=O)Nc1ccccn1
- T/C [2]: 108 % of control
- T/C [3]: 108 % of control
- T/C [4]: 97 % of control

SMILES: CC1=C(C)C(=O)C(CC2=C(C)C(=O)C(C)=C(C)C2=O)=C(C)C1=O
- T/C [2]: 102 % of control
- T/C [3]: 91 % of control
- T/C [4]: 109 % of control

SMILES: O=C(O)C(=O)O.[Co].[NH-]CC[NH-].[NH-]CC[NH-]
- T/C [7]: 98 % of control

SMILES: ClCCn1c(CCl)nc2ccccc21
- T/C (endpoint: mean survival time, dose: 10.0 mg/kg/injection, schedule: Q01DX009 (ip), vehicle: saline): 98 % of control
- T/C (endpoint: mean survival time, dose: 20.0 mg/kg/injection, schedule: Q01DX009 (ip), vehicle: saline): 94 % of control

SMILES: CSc1nc(N)c2c(C(N)=O)cc(=O)n(C3OC(CO)C(O)C3O)c2n1 (centres undefined)
- T/C (endpoint: mean survival time, dose: 12.5 mg/kg/injection, schedule: Q01DX005 (ip), vehicle: water): 96 % of control
- T/C (endpoint: mean survival time, dose: 25.0 mg/kg/injection, schedule: Q01DX005 (ip), vehicle: water): 96 % of control
- T/C (endpoint: mean survival time, dose: 50.0 mg/kg/injection, schedule: Q01DX005 (ip), vehicle: water): 96 % of control
- T/C (endpoint: mean survival time, dose: 100.0 mg/kg/injection, schedule: Q01DX005 (ip), vehicle: water): 93 % of control
- T/C (endpoint: mean survival time, dose: 200.0 mg/kg/injection, schedule: Q01DX005 (ip), vehicle: water): 101 % of control

SMILES: O=C1C=C(N2CCOCC2)c2ccccc2C1=O
- T/C (endpoint: mean survival time, dose: 75.0 mg/kg/injection, schedule: Q01DX001 (ip), vehicle: saline): 100 % of control
- T/C (endpoint: mean survival time, dose: 150.0 mg/kg/injection, schedule: Q01DX001 (ip), vehicle: saline): 94 % of control

SMILES: CCCCCCCC=C(CCCCCCCC)CCCCCCCC
- T/C [5]: 100 % of control
- T/C [6]: 97 % of control
- T/C [8]: 100 % of control

SMILES: CCCCNCCC(SSSC(CCNCCCC)c1ccc(Cl)cc1)c1ccc(Cl)cc1 (centres undefined)
- T/C (endpoint: mean survival time, dose: 6.25 mg/kg/injection, schedule: Q01DX009 (ip), vehicle: saline with Tween-80): 101 % of control
- T/C (endpoint: mean survival time, dose: 12.5 mg/kg/injection, schedule: Q01DX009 (ip), vehicle: saline with Tween-80): 95 % of control
- T/C (endpoint: mean survival time, dose: 25.0 mg/kg/injection, schedule: Q01DX009 (ip), vehicle: saline with Tween-80): 95 % of control

SMILES: O=C1OCC/C1=C1\CCCO1
- T/C [9]: 106 % of control
- T/C [10]: 101 % of control
- T/C [11]: 95 % of control

SMILES: Cn1c(=S)sc2nc3ccccc3n2c1=S
- T/C (endpoint: median survival time, dose: 15.0 mg/kg/injection, schedule: Q01DX005 (ip), vehicle: saline with Tween-80): 103 % of control
- T/C (endpoint: median survival time, dose: 30.0 mg/kg/injection, schedule: Q01DX005 (ip), vehicle: saline with Tween-80): 107 % of control
- T/C (endpoint: median survival time, dose: 60.0 mg/kg/injection, schedule: Q01DX005 (ip), vehicle: saline with Tween-80): 111 % of control
- T/C (endpoint: median survival time, dose: 120.0 mg/kg/injection, schedule: Q01DX005 (ip), vehicle: saline with Tween-80): 107 % of control
- T/C (endpoint: median survival time, dose: 240.0 mg/kg/injection, schedule: Q01DX005 (ip), vehicle: saline with Tween-80): 107 % of control

SMILES: Cc1c(NS(=O)(=O)c2ccccc2)c(C)c(NS(=O)(=O)c2ccccc2)c(C)c1NS(=O)(=O)c1ccccc1
- T/C [1]: 92 % of control
- T/C [9]: 88 % of control and 93 % of control
- T/C [10]: 93 % of control and 94 % of control
- T/C [11]: 96 % of control

SMILES: O=C(CNC(=O)OCc1ccccc1)NCC(=O)OCc1ccccc1 (Cbz-Gly-Gly-OBn)
- T/C [12]: 93 % of control
- T/C [9]: 96 % of control
- T/C [13]: 92 % of control
- T/C [10]: 93 % of control
- T/C [14]: 89 % of control
- T/C [11]: 93 % of control

SMILES: Cc1ccc(NC(=O)Nc2ccccc2Cl)c(C)c1
- T/C [9]: 102 % of control
- T/C [10]: 90 % of control
- T/C [11]: 93 % of control

SMILES: c1ccc2c(c1)oc1ccccc12
- T/C [9]: 98 % of control
- T/C [10]: 92 % of control
- T/C [11]: 92 % of control

SMILES: O=C(c1ccccc1)C1CC1c1ccccc1 (centres undefined)
- T/C (endpoint: mean survival time, dose: 100.0 mg/kg/injection, schedule: Q01DX009 (ip), vehicle: saline): 101 % of control
- T/C (endpoint: mean survival time, dose: 200.0 mg/kg/injection, schedule: Q01DX009 (ip), vehicle: saline): 90 % of control
- T/C (endpoint: mean survival time, dose: 400.0 mg/kg/injection, schedule: Q01DX009 (ip), vehicle: saline): 94 % of control

SMILES: CNC(=O)Nc1cc(OC)ccc1OC
- T/C [5]: 106 % of control
- T/C [6]: 106 % of control
- T/C [8]: 102 % of control

SMILES: Cc1cc(C)c(N)c(Br)c1C
- T/C [12]: 102 % of control
- T/C [9]: 103 % of control
- T/C [13]: 97 % of control
- T/C [10]: 100 % of control
- T/C [14]: 104 % of control
- T/C [11]: 101 % of control

SMILES: CN(C)CCCNC(=O)c1ccc(N)cc1
- T/C [7]: 102 % of control
- T/C (endpoint: mean survival time, dose: 200.0 mg/kg/injection, schedule: Q04DX002 (ip), vehicle: saline): 105 % of control
- T/C (endpoint: mean survival time, dose: 400.0 mg/kg/injection, schedule: Q04DX002 (ip), vehicle: saline): 97 % of control

SMILES: COc1cc(/C=N\O)nc(-c2ccccn2)c1
- T/C (endpoint: mean survival time, dose: 100.0 mg/kg/injection, schedule: Q01DX001 (ip), vehicle: saline): 107 % of control
- T/C (endpoint: mean survival time, dose: 200.0 mg/kg/injection, schedule: Q01DX001 (ip), vehicle: saline): 98 % of control
- T/C (endpoint: mean survival time, dose: 400.0 mg/kg/injection, schedule: Q01DX001 (ip), vehicle: saline): 97 % of control

SMILES: CCCCCCCCCC[n+]1ccc(C#N)cc1
- T/C (endpoint: mean survival time, dose: 9.38 mg/kg/injection, schedule: Q01DX001 (ip), vehicle: saline): 101 % of control
- T/C (endpoint: mean survival time, dose: 18.75 mg/kg/injection, schedule: Q01DX001 (ip), vehicle: saline): 103 % of control

SMILES: OCC(O)C(O)C(O)C(SCc1ccccc1)SCc1ccccc1 (centres undefined)
- T/C [5]: 97 % of control
- T/C [6]: 93 % of control
- T/C [8]: 89 % of control
